Assay: Intrinsic clearance in human hepatocytes from chimeric mouse with humanized liver assessed per 10^6 cells at 10 uM after 0.25 to 2 hrs by LC-MS/MS method
Format: ADME, cell-based, Hepatocyte
Conditions: read-out: CLH

Compound	hepatocyte CLint at 10 µM
CC1=C(CC(=O)O)c2cc(F)ccc2/C1=C\c1ccc([S+](C)[O-])cc1 (stereo not drawn)	2 µL/min/1e6 cells
CC(=O)C[C@@H](c1ccccc1)c1c(O)c2ccccc2oc1=O	1.2 µL/min/1e6 cells
Nc1ncc2ncn(CCC(CO)CO)c2n1 [6-DEOXY PENCICLOVIR]	5.3 µL/min/1e6 cells
Nc1ccc(S(=O)(=O)c2ccc(N)cc2)cc1 [DAPSONE]	2.3 µL/min/1e6 cells
O=C(O)Cc1ccccc1Nc1c(Cl)cccc1Cl [DICLOFENAC]	24.7 µL/min/1e6 cells
Nc1nnc(-c2cccc(Cl)c2Cl)c(N)n1 [LAMOTRIGINE]	1.4 µL/min/1e6 cells
CN1CCN2c3ncccc3Cc3ccccc3C2C1 (stereo not drawn) [MIRTAZAPINE]	6.3 µL/min/1e6 cells
CCN(C(C)=O)c1cccc(-c2ccnc3c(C#N)cnn23)c1 [ZALEPLON]	2.3 µL/min/1e6 cells

Assay: Oral clearance in po dosed human
Format: ADME, organism-based
Conditions: in vivo

Compound	CL/F
CC1=C(CC(=O)O)c2cc(F)ccc2/C1=C\c1ccc([S+](C)[O-])cc1 (stereo not drawn)	3.3 mL/min/kg
Nc1ncc2ncn(CCC(CO)CO)c2n1 [6-DEOXY PENCICLOVIR]	118 mL/min/kg
Nc1nnc(-c2cccc(Cl)c2Cl)c(N)n1 [LAMOTRIGINE]	0.3 mL/min/kg

Assay: in vivo
Conditions: mouse, iv, 3 mg/kg

Compound	half-life
CC1=C(CC(=O)O)c2cc(F)ccc2/C1=C\c1ccc([S+](C)[O-])cc1 (stereo not drawn)	72 min
Nc1ncc2ncn(CCC(CO)CO)c2n1 [6-DEOXY PENCICLOVIR]	6 min
O=C(O)Cc1ccccc1Nc1c(Cl)cccc1Cl [DICLOFENAC]	36 min
Nc1nnc(-c2cccc(Cl)c2Cl)c(N)n1 [LAMOTRIGINE]	606 min

Assay: Total clearance in chimeric mouse with humanized liver at 3 mg/kg, iv by LC-MS/MS method
Format: ADME, organism-based
Parameters: dose 3 mg/kg, route intravenous
Conditions: in vivo

Compound	clearance
CC1=C(CC(=O)O)c2cc(F)ccc2/C1=C\c1ccc([S+](C)[O-])cc1 (stereo not drawn)	5.6 mL/min/kg
Nc1ncc2ncn(CCC(CO)CO)c2n1 [6-DEOXY PENCICLOVIR]	71.2 mL/min/kg
Nc1ccc(S(=O)(=O)c2ccc(N)cc2)cc1 [DAPSONE]	2.1 mL/min/kg
O=C(O)Cc1ccccc1Nc1c(Cl)cccc1Cl [DICLOFENAC]	16.4 mL/min/kg
Nc1nnc(-c2cccc(Cl)c2Cl)c(N)n1 [LAMOTRIGINE]	1.4 mL/min/kg
CN1CCN2c3ncccc3Cc3ccccc3C2C1 (stereo not drawn) [MIRTAZAPINE]	30.4 mL/min/kg
CCN(C(C)=O)c1cccc(-c2ccnc3c(C#N)cnn23)c1 [ZALEPLON]	48.1 mL/min/kg

Assay: Total clearance in chimeric mouse with humanized liver at 0.3 mg/kg, iv by LC-MS/MS method
Format: ADME, organism-based
Parameters: dose 0.3 mg/kg, route intravenous
Conditions: in vivo

Compound	clearance
CC(=O)C[C@@H](c1ccccc1)c1c(O)c2ccccc2oc1=O	0.2 mL/min/kg

Assay: Unbound fraction in iv dosed human plasma
Format: ADME, organism-based
Conditions: not given

Compound	fraction unbound
CC(=O)C[C@@H](c1ccccc1)c1c(O)c2ccccc2oc1=O	0.015
CC(C)(C)NCC(O)c1ccc(O)c(CO)c1 (stereo not drawn) [ALBUTEROL]	0.925
O=S(=O)(c1cccc2cnccc12)N1CCCNCC1 [FASUDIL]	0.51

Assay: Ratio of drug level in blood to plasma in po dosed human
Format: ADME, organism-based
Conditions: blood and plasma, read-out: Rblood_plasma

Compound	blood plasma ratio
CC1=C(CC(=O)O)c2cc(F)ccc2/C1=C\c1ccc([S+](C)[O-])cc1 (stereo not drawn)	1
Nc1ncc2ncn(CCC(CO)CO)c2n1 [6-DEOXY PENCICLOVIR]	1.2
Nc1nnc(-c2cccc(Cl)c2Cl)c(N)n1 [LAMOTRIGINE]	1

Assay: Unbound fraction in po dosed human plasma
Format: ADME, organism-based
Conditions: not given

Compound	fraction unbound
CC1=C(CC(=O)O)c2cc(F)ccc2/C1=C\c1ccc([S+](C)[O-])cc1 (stereo not drawn)	0.069
Nc1ncc2ncn(CCC(CO)CO)c2n1 [6-DEOXY PENCICLOVIR]	1
Nc1nnc(-c2cccc(Cl)c2Cl)c(N)n1 [LAMOTRIGINE]	0.45

Assay: clinical
Conditions: human, in vivo, iv
Description: Total clearance in iv dosed human

Compound	clearance
CC(=O)C[C@@H](c1ccccc1)c1c(O)c2ccccc2oc1=O	0.055 mL/min/kg
